Reference: patent US20050165224A1, “Inhibition of penicillin resistance in s. pneumoniae” (priority 2000, published 2005)
≈ marks a conversion by molar mass, not a printed value.

Tests used:
Experiment in all cases: Penicillin MIC (E-test / population analysis)
Type in all cases: cell-based
[1] = test system: S. pneumoniae R36A, disrupted murMN operon; settings: Streptococcus pneumoniae, strain R36A (laboratory strain)
Method: (§1) Inactivation of the murMN operon. For gene disruption experiments, internal fragments of murM, from the bacterial strains R36A and Pen6, were amplified by PCR and cloned into pJDC9 (9). For amplification of the internal fragment of murM from R36A the following primers were used 5′-[…]-3′ (SEQ ID NO: 26) and 5′-[…]-3′ (SEQ ID NO: 27) giving origin to the plasmid pZOO5. Amplification of the internal fragment of murM from Pen6 was carried out using the primers 5′-[…]-3′ (SEQ ID NO:28) and 5′-[…]-3′ (SEQ ID NO: 29) giving origin to the plasmid pZOO6. For inactivation of the murMN operon in R36A and in Pen6, competent cells of R36A and Pen6 were transformed respectively with plasmids pZOO5 and pZOO6 (FIG. 1B).
(§2) Transformation, population analysis profiles and determination of penicillin resistance level S. pneumoniae R36A and Pen6 were transformed essentially according to published procedures (8). To induce competence, synthetic CSPα was added to the medium at a concentration of 250 ng/ml. The competent cells were then incubated for 30 min at 30° C. in the presence of plasmidic DNA followed by the addition of 2 ml of C+Y medium and a 2 h incubation at 37° C. […] Penicillin resistance levels (minimal inhibitory concentration, MIC) were determined by the E-test following the manufacturers guidelines (AB Bidosk, Sweden).

[2] = test system: S. pneumoniae Pen6, disrupted murMN operon; settings: Streptococcus pneumoniae, strain Pen6 (transformant)
Method: as §1, §2

[3] = test system: S. pneumoniae Sp2150, disrupted murMN operon; settings: Streptococcus pneumoniae, strain Sp2150 (serotype 9/14, French/Spanish)
[4] = test system: S. pneumoniae Sp2150, intact murMN operon; settings: Streptococcus pneumoniae, strain Sp2150 (serotype 9/14, French/Spanish)
Method: (§3) Transformation, population analysis profiles and determination of penicillin resistance level S. pneumoniae R36A and Pen6 were transformed essentially according to published procedures (8). To induce competence, synthetic CSPα was added to the medium at a concentration of 250 ng/ml. The competent cells were then incubated for 30 min at 30° C. in the presence of plasmidic DNA followed by the addition of 2 ml of C+Y medium and a 2 h incubation at 37° C. Transformants were selected on blood agar plates (TSA+3% (v/v) sheep blood) containing 1 μg/ml erythromycin. Population analysis profiles (PAPs) were determined by plating serial dilutions of early stationary phase cultures on plates of TSA containing 5% (v/v) of sheep blood (Micropure Medical Inc, White Bear Lake, Minn.), and different concentrations of Penicillin G (Sigma) (0, 0.01, 0.03, 0.06, 0.125, 0.25, 0.5, 1, 2, 4, 8, 16 ([…]). The PAPs were done with and without the presence of […] erythromycin in the medium. Plates were incubated at 37° C. in a 5% CO2-in-air atmosphere for 24 h and the number of bacteria capable of forming colonies in the presence of various penicillin concentrations was plotted against the concentration of penicillin in the agar medium. Penicillin resistance levels (minimal inhibitory concentration, MIC) were determined by the E-test following the manufacturers guidelines (AB Bidosk, Sweden).

[5] = test system: S. pneumoniae Ala1, intact murMN operon; settings: Streptococcus pneumoniae, strain Ala1 (serotype 6B, Alaskan)
Method: as §3

[6] = test system: S. pneumoniae 8249, intact murMN operon; settings: Streptococcus pneumoniae, strain 8249 (serotype 19A, South African)
Method: as §3

[7] = test system: S. pneumoniae Pen6, intact murMN operon; settings: Streptococcus pneumoniae, read-out: Penicillin MIC
Method: as §3

[8] = test system: S. pneumoniae Clev2, intact murMN operon; settings: Streptococcus pneumoniae, read-out: Penicillin MIC
Method: as §3

[9] = test system: S. pneumoniae R36A, intact murMN operon; settings: Streptococcus pneumoniae, strain R36A (laboratory strain)
Method: as §3

[10] = test system: S. pneumoniae Hun663, intact murMN operon; settings: Streptococcus pneumoniae, read-out: Penicillin MIC
Method: as §3

[11] = test system: S. pneumoniae Ala1, disrupted murMN operon; settings: Streptococcus pneumoniae, strain Ala1 (serotype 6B, Alaskan)
[12] = test system: S. pneumoniae Hun663Tr4Tr5, disrupted murMN operon; settings: Streptococcus pneumoniae, strain Hun663Tr4Tr5 (transformant)
[13] = test system: S. pneumoniae Clev2, disrupted murMN operon; settings: Streptococcus pneumoniae, strain Clev2 (serotype 23F, Spanish/USA)

CC1(C)S[C@@H]2[C@H](NC(=O)Cc3ccccc3)C(=O)N2[C@H]1C(=O)O [Penicillin, Penicillin G]
MIC [1]: 0.023 µg/mL (≈ 0.0688 µM) | MIC [2]: 0.032 µg/mL (≈ 0.0957 µM) | MIC [3]: 0.032 µg/mL (≈ 0.0957 µM) | MIC [4]: 1 µg/mL (≈ 2.99 µM) | MIC [5]: 0.12 µg/mL (≈ 0.359 µM) | MIC [6]: 6 µg/mL (≈ 17.9 µM) | MIC [7]: 6 µg/mL (≈ 17.9 µM) | MIC [8]: 1.6 µg/mL (≈ 4.78 µM) | MIC [9]: 0.023 µg/mL (≈ 0.0688 µM) | MIC [10]: 1.6 µg/mL (≈ 4.78 µM) | MIC [11]: 0.064 µg/mL (≈ 0.191 µM) | MIC [12]: 0.032 µg/mL (≈ 0.0957 µM) | MIC [13]: 0.016 µg/mL (≈ 0.0478 µM)
